Data from paper PMC9054546, “Synthesis and molecular modeling studies of cholinesterase inhibitor dispiro[indoline-3,2′-pyrrolidine-3′,3′′-pyrrolidines]” (RSC Advances, 2020).
Several values for one entry are separate records, joined by “and”; a condition that tells them apart may be missing. Equal entries are not always repeated. Where two headings read alike, the source gives them in different places.

Legend:
[1] = system: RPE1 (human immortalized retinal pigment epithelial cell line); assay: Antiproliferative/cytotoxicity MTT assay on normal cell line; format: cell-based; conditions: RPE-1, 72 h incubation, tested at 100, 50, 25 and 12.5 μM, read-out: IC50 against RPE1
Excerpt: Antiproliferative properties of the synthesized agents 8a–l were considered against RPE1 (human immortalized retinal pigment epithelial cell line) normal cell line utilizing the standard MTT (tetrazolium salt) technique.[37]
The synthesized agents 8a–l were screened against RPE1 (human immortalized retinal pigment epithelial cell line) normal cell line to investigate their cytotoxicity by the standard mitochondrial dependent reduction of yellow MTT [3-(4,5-dimethylthiazol-2-yl)-2,5-diphenyl-tetrazolium bromide] to purple formazan technique.[37] Cells were suspended in DMEM in addition to 1% antibiotic–antimycotic mixture (10 000 μg mL^−1 potassium penicillin, 10 000 μg mL^−1 streptomycin sulfate and 25 μg mL^−1 amphotericin B), 10% fetal bovine serum and 1% L-glutamine at 37 °C, under 5% CO2 and 95% humidity. Cells were seeded at concentration of 30 000 cells per well in fresh complete growth medium in 96-well tissue culture microtiter plates for 24 h. […] 0.5% DMSO was used as negative control. Triplicate wells were prepared for each individual dose. After 72 h of incubation, medium was aspirated, 40 μl MTT salt (2.5 mg mL^−1) were added to each well and incubated for further 4 h at 37 °C. To stop the reaction and dissolve the formed crystals, 150 μL of 10% sodium dodecyl sulfate (SDS) in deionized water were added to each well and incubated overnight at 37 °C.
Data were collected as mean values for experiments performed in triplicates for each individual dose which had been measured by MTT assay. […] The percentage of cell survival was calculated according to the following equation. [drawing 1]
Statistical calculations for determination of the mean and standard error values were determined by SPSS 16 software.

AChE [2] = target: T1, AChE (Homo sapiens, UniProt P22303); assay: biochemical; conditions: for SI(AChE/BChE): selectivity index = IC50 (AChE)/IC50 (BChE)
T1 sequence (P22303 32-614): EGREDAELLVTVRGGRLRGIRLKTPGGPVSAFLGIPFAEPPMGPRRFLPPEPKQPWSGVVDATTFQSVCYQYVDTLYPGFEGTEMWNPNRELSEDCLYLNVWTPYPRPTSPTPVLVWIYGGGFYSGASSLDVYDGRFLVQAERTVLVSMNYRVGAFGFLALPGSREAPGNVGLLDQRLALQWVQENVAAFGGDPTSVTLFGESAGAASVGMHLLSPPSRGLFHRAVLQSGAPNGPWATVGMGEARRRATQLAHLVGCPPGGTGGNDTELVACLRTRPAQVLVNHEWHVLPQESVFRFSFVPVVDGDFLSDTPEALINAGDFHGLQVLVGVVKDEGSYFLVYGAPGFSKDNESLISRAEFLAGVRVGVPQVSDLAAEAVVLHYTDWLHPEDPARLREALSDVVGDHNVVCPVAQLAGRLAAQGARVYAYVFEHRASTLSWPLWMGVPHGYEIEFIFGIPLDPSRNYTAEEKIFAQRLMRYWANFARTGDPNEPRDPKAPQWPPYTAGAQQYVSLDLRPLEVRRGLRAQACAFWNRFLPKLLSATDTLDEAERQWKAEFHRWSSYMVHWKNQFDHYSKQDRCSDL
Description: (§1) Butyrylthiocholine iodide and acetylthiocholine were utilized as substrates in BChE and AChE assays, respectively, where DTNB was served as indicator. All compounds were dissolved in MeOH. […] Blank assays were performed by replacing the enzyme (20 μL) with buffer and their absorbances were recorded for correction of the spontaneous lysis of the indicator or inherent color of the inhibitor.
Selectivity index (SI) for acetyl and butyryl cholinesterases was calculated as follow:SI(AChE/BChE) = IC50 (AChE)/IC50 (BChE)SI(BChE/AChE) = […]

BChE [3] = target: T2, BChE (Homo sapiens, UniProt P06276); assay: 2D-QSAR (BMLR, CODESSA-Pro) model, BChE inhibitors; conditions: observed minus estimated IC50
T2 sequence (P06276 29-602): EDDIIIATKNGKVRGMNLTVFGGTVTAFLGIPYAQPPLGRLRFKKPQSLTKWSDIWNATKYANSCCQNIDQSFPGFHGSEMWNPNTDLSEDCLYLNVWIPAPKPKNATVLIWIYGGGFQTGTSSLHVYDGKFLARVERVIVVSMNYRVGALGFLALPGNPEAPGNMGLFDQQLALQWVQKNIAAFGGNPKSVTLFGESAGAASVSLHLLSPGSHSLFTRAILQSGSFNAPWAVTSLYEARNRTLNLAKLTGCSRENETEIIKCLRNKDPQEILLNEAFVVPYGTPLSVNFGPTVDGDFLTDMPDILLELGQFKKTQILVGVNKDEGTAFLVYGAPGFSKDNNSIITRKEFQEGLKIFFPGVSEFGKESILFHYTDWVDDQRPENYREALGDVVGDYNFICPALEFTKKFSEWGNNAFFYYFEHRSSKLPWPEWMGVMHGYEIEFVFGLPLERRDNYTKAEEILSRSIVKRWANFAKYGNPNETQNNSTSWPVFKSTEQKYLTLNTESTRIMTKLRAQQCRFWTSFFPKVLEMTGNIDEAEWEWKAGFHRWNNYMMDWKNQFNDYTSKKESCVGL
Excerpt: (§2) The cholinesterase properties observed were undertaken by CODESSA-Pro software accessible for optimizing 2D-QSAR models.[39–41] This is useful for well understanding the bio-observations and identifying the parameters necessary for bio-potency. Three descriptor QSAR models were developed due to the AChE and BChE inhibitory properties of the synthesized dispiro-compounds 8a–l (ESI Tables S4–S9, Fig. S40 and S41, details of the QSAR descriptors are also mentioned in the ESI). ^† […]
(§3) Goodness of the QSAR models was supported by the comparative values of the correlation coefficient (R^2) with their cross validation of leave one-out (R^2cvOO) and leave many-out (R^2cvMO) [R^2 = 0.923, 0.979; R^2cvOO = 0.882, 0.936; R^2cvMO = 0.904, 0.956, for AChE and BChE models, respectively]. Standard deviation (s^2) and Fisher criteria (F) values of the models also support their goodness (s^2 = 0.026, 0.005; […]. Additionally, the correlations of the observed and predicted values “specially the high potent synthesized compounds” add good support for the attained models. […]
(§4) Molecular modeling studies
(§5) The synthesized dispiro[indoline-3,2'-pyrrolidine-3',3''-pyrrolidines] 8a‒l […]
(§6) 2D-QSAR modeling by CODESSA-Pro (comprehensive descriptors for structural and statistical analysis) software. Geometry of the compounds was initially optimized by AM1 technique using hyperChem 8.0 then, uploaded to CODESSA-Pro for final geometrical structure optimization by MOPAC.10‒12 CODESSA-Pro calculated 656 molecular descriptors (constitutional, topological, geometrical, charge-related, semi-empirical, thermodynamical, molecular-type, atomic-type and bond-type descriptors) for […]
(§7) the exported bio-active agents. Mathematical transformation of the experimental values […]
(§8) QSAR model. The best multi-linear regression (BMLR) technique was utilized which is a stepwise search for the best n-parameter regression equations (where n stands for the number of descriptors used), based on the highest R2 (squared correlation coefficient), R2cvOO (squared cross-validation “leave one-out, LOO” coefficient), R2cvMO (squared cross-validation “leave many-out up to 20% of the training set, LMO” coefficient), F (Fisher statistical significance criteria) values, and s2 (standard deviation). The QSAR up to 3-descriptor model describing the biological activity of the bio-active agents were generated (obeying the thumb rule of 4:1 which is the ratio between the data points and the number of QSAR descriptor).
(§9) Minimum (>0.1) bond order for atom C is an atomic type descriptor with the […]
(§10) why the higher descriptor value, the lower AChE inhibitory efficacy of the tested agent as […]
(§11) 2/SQRT(TMSA) (MOPAC PC) is a charge related descriptor with relatively high […]
(§12) . Compounds with high descriptor value predicted low AChE
(§13) 0.11715). HDCA2 (area weighed surface charge of hydrogen bonding donor atoms) can be calculated by equ. (1). 13
(§14) HDCA2 = D … .DtotH‒donor (1)
(§15) Where, standsSD for the solvent accessible surface area of H-bonding donor H atoms (selected by threshold charge), is the partialqD charge on H-bonding donor H atoms (selected by threshold charge) and is the totalStot solvent accessible molecular surface […]
(§16) Square root of surface area for atom C is also a charge related descriptor with […]
(§17) . For this reason, the higher descriptor value of […]
partial positively and negatively charged surface area can be calculated by equs. (2) and […]
PPSA3 = A … .. (2)A∈{δA>0}
PNSA3 = A … ..A∈{δA>0} (3)
Where, is the positively/negativelySA charged solvent accessible atomic surface area and qA is the atomic partial charge.
ZX Shadow/ZX rectangle is a geometrical descriptor with the highest coefficient […]
. The higher descriptor value of […]
compounds 8c and 8e, respectively). Relative shadow areas of a molecule can be determined by equ. (4). 13
Where, C is contour of the projection of the molecule on the plane defined by two principal axes of the molecule (k = XY, XZ or YZ plane), , , = X • ν –x or yρ –y or zS(k) […]
Maximum atomic state energy for atom O is an atomic type descriptor. […]

BChE [4] = target: T2, BChE; assay: biochemical; conditions: for SI(BChE/AChE): selectivity index BChE/AChE
Description: as §1, with “inhibitor. […]” for “inhibitor.”

AChE [5] = target: T1, AChE; assay: 2D-QSAR (BMLR, CODESSA-Pro) model, AChE inhibitors; conditions: observed minus estimated IC50
Excerpt: as §2, §3, §4, §5, §6, §7, §8, §9, §10, §11, §12, §13, §14, §15, §16, §17

[6] = 10 min incubation at 25 °C, read at 405 nm, read-out: IC50 of AChE (μM) ± SD
[7] = log transformation of the observed IC50, read-out: Observed log(IC50, μM), AChE (converted)
[8] = 10 min incubation at 25 °C, read at 405 nm, read-out: IC50 of BChE (μM) ± SD
[9] = log transformation of the observed IC50, read-out: Observed log(IC50, μM), BChE (converted)

Row | SMILES | IC50 [1] | IC50 (AChE [2]; [6]) | IC50 (AChE [2]; [7]) | SI(AChE/BChE) (AChE [2]) | Error (difference between observed and estimated property values), BChE BMLR-QSAR model (BChE [3]) | IC50 (BChE [4]; [8]) | IC50 (BChE [4]; [9]) | SI(BChE/AChE) (BChE [4]) | Error (difference between observed and estimated property values), AChE BMLR-QSAR model (AChE [5])
1 | CN1CC(c2ccccc2)C2(CC(=O)N(c3ccccc3)C2=O)C12C(=O)Nc1ccccc12 (stereo not drawn) [Compound 8a, 1′-Methyl-1′′,4′-diphenyldispiro[indoline-3,2′-pyrrolidine-3′,3′′-pyrrolidine]-2,2′′,5′′-trione] | > 100 µM | 117 µM | 117 µM | 1.43 | 12.80 µM | 81.8 µM | 81.8 µM | 0.70 | -13.41 µM
2 | CN1CC(c2ccccc2)C2(CC(=O)N(c3ccccc3)C2=O)C12C(=O)Nc1ccc(Cl)cc12 (stereo not drawn) [Compound 8b, 5-Chloro-1′-methyl-1′′,4′-diphenyldispiro[indoline-3,2′-pyrrolidine-3′,3′′-pyrrolidine]-2,2′′,5′′-trione] | > 100 µM | 13.6 ± 0.62 µM | 13.6 µM | 0.32 | -6.64 µM | 42.5 µM and 42.4 µM | 42.5 µM | 3.12 | 0.13 µM
3 | COc1ccc2c(c1)C1(C(=O)N2)N(C)CC(c2ccccc2)C12CC(=O)N(c1ccccc1)C2=O (stereo not drawn) [Compound 8c, 5-Methoxy-1′-methyl-1′′,4′-diphenyldispiro[indoline-3,2′-pyrrolidine-3′,3′′-pyrrolidine]-2,2′′,5′′-trione] | > 100 µM | 103 µM | 103 µM | 1.43 | 7.44 µM | 71.7 µM | 71.7 µM | 0.70 | 18.50 µM
4 | CN1CC(c2ccc(Cl)cc2)C2(CC(=O)N(c3ccccc3)C2=O)C12C(=O)Nc1ccc(Cl)cc12 (stereo not drawn) [Compound 8d, 5-Chloro-4′-(4-chlorophenyl)-1′-methyl-1′′-phenyldispiro[indoline-3,2′-pyrrolidine-3′,3′′-pyrrolidine]-2,2′′,5′′-trione] | > 100 µM | 24.3 ± 4.08 µM | 24.3 µM | 1.14 | -5.91 µM | 21.3 µM | 21.3 µM | 0.88 | 13.92 µM
5 | COc1ccc(C2CN(C)C3(C(=O)Nc4ccc(Cl)cc43)C23CC(=O)N(c2ccccc2)C3=O)cc1 (stereo not drawn) [Compound 8f, 5-Chloro-4′-(4-methoxyphenyl)-1′-methyl-1′′-phenyldispiro[indoline-3,2′-pyrrolidine-3′,3′′-pyrrolidine]-2,2′′,5′′-trione] | > 100 µM | 12.3 µM | 12.3 µM | 0.61 | 1.88 µM | 20.1 ± 0.16 µM | 20.1 µM | 1.64 | 1.32 µM
6 | CN1CC(c2ccccc2)C2(CC(=O)N(c3ccc(Cl)cc3)C2=O)C12C(=O)Nc1ccc(Cl)cc12 (stereo not drawn) [Compound 8i, 5-Chloro-1′′-(4-chlorophenyl)-1′-methyl-4′-phenyldispiro[indoline-3,2′-pyrrolidine-3′,3′′-pyrrolidine]-2,2′′,5′′-trione] | > 100 µM | 39.4 µM | 39.4 µM | 1.12 | -3.48 µM | 35.1 µM | 35.1 µM | 0.89 | -3.69 µM
7 | CN1CC(c2ccc(Cl)cc2)C2(CC(=O)N(c3ccc(Cl)cc3)C2=O)C12C(=O)Nc1ccccc12 (stereo not drawn) [Compound 8j, 1′′,4′-Bis(4-chlorophenyl)-1′-methyldispiro[indoline-3,2′-pyrrolidine-3′,3′′-pyrrolidine]-2,2′′,5′′-trione] | > 100 µM | 21 µM | 21 µM | 1.54 | 1.51 µM | 13.6 µM | 13.6 µM | 0.65 | -0.80 µM
8 | CN1CC(c2ccc(Cl)cc2)C2(CC(=O)N(c3ccc(Cl)cc3)C2=O)C12C(=O)Nc1ccc(Cl)cc12 (stereo not drawn) [Compound 8k, 5-Chloro-1′′,4′-bis(4-chlorophenyl)-1′-methyldispiro[indoline-3,2′-pyrrolidine-3′,3′′-pyrrolidine]-2,2′′,5′′-trione] | > 100 µM | 13.9 µM | 13.9 µM | 1.36 | 1.09 µM | 10.2 ± 0.76 µM | 10.2 µM | 0.73 | -0.82 µM
